Experimental data as given in patent US6313333A, “Multinuclear cationic platinum complexes with antitumor activity” (Setanta Therapeutics, Inc., priority 1997, dated 2001).

System: murine leukemia L1210
Conditions: l1210 cells

| Compound | IC50, "in vitro" cytotoxic activity against murine leukemia L1210 [µg/mL] |
| --- | --- |
| t,t-[PtCl(NH3)2 H2 N--(CH2)6 --NH2 PtCl(NH3)2 ]^+2.2NO3^- | 2.3 |
| t,t,t,t,t-[PtCl(NH3)2 H2 N--(CH2)6 --NH2 Pt--(NH3)2 H2 N--(CH2)6 --NH2 Pt(NH3)2 H2 N--(CH2)6 --NH2 Pt(NH3)2 H2 N--(CH2)6 --NH2 PtCl(NH3)2 ]^+8.8Cl^- | 0.3 |
| N.N.N.N.N.N.NCCCCCCN.NCCCCCCN.O=[N+]([O-])[O-].O=[N+]([O-])[O-].O=[N+]([O-])[O-].O=[N+]([O-])[O-].[Cl-].[Cl-].[Pt+2].[Pt+2].[Pt+2] [t,t,t-[PtCl(NH3)2 H2 N(CH2)6 NH2 Pt(NH3)2 H2 N(CH2)6 NH2 PtCl(NH3)2]^+4.4NO3^-] | 0.38 |
